Read-outs that look alike come from different tables or passages of the source.
Experiments:
[1] = target: T1, AHR (Homo sapiens, UniProt P35869); assay: In vitro assay 1: antagonism in human cell line (AHR transactivation, firefly luciferase reporter, kynurenic acid prestimulated); format: cell-based; conditions: AHR Antagonism Human IC50 [M]
T1 construct: U87 MG glioblastoma cells (ATCC #HTB-14) endogenously expressing AHR; endogenous in cells; host or cells: U87 MG glioblastoma cells (ATCC #HTB-14)
T1 sequence (P35869 11-848): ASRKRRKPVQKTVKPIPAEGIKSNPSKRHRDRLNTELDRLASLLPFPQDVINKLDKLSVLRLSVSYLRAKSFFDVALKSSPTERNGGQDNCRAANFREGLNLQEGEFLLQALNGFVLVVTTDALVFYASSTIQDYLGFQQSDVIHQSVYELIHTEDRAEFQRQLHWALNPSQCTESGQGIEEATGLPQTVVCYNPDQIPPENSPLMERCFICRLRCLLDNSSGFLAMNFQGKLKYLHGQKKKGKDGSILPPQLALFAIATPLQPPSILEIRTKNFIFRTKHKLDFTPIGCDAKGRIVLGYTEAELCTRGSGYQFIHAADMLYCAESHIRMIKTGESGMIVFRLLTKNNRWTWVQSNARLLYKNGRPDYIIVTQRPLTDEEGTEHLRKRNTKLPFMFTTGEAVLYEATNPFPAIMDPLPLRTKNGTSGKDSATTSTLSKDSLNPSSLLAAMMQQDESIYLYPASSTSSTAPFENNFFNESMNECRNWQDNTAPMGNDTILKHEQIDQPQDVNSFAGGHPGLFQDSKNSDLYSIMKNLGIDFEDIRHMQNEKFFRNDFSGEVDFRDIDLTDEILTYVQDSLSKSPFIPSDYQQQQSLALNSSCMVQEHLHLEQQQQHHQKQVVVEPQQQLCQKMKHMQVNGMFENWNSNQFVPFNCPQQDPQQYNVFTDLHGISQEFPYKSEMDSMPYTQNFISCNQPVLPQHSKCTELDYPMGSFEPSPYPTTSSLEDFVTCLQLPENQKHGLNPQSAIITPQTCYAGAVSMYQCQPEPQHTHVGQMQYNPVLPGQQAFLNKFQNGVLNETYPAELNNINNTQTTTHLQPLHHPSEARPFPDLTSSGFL
How it was run: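 U87 MG + DRE-firefly/constitutive-Renilla stable reporters; kynurenic acid prestim; dual-luc read; Renilla = tox; normalized vs pos/neg controls (pos: 150 μM KYNA + 5 μM staurosporine).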

[2] = target: T2, AHR (Mus musculus, UniProt P30561); assay: In vitro assay 3: antagonism in mouse cell line (AHR transactivation, firefly luciferase reporter, kynurenic acid prestimulated); format: cell-based
T2 sequence (P30561 1-848 P471L/N533S/M589L): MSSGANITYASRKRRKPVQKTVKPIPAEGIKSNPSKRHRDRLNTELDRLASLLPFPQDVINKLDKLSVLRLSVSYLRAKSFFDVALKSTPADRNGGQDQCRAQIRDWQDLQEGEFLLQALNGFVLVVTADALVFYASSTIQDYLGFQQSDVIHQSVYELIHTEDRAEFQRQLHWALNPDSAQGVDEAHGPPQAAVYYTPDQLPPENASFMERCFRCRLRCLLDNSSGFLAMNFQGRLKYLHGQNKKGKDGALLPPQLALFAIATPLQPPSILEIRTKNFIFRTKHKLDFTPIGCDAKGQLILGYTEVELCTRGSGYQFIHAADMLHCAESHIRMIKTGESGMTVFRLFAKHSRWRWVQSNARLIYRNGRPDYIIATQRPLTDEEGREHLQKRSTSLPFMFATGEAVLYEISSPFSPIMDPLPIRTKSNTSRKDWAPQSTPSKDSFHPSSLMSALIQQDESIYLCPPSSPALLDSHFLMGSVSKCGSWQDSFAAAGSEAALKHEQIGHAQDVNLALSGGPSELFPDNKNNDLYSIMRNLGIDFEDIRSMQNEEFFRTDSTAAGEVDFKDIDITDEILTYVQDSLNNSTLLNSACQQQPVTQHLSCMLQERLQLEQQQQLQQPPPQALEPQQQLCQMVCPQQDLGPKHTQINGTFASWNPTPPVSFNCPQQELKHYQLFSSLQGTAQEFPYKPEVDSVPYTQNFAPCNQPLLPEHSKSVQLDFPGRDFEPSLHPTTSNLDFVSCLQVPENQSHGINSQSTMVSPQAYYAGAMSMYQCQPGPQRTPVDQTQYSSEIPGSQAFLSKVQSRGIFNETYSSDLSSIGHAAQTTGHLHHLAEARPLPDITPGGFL
How it was run: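 Mouse cells stably carrying a DRE-driven AHR-inducible firefly luciferase reporter were prestimulated with the endogenous agonist kynurenic acid before compound addition. Luciferase read by SteadyGlo; cells without kynurenic acid served as full-inhibition control, with normalization to positive and negative controls. Repeat tests reported as mean or median.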

[3] = Hepa 1c1c7 cells, 200 μM kynurenic acid, 20 hours, firefly luciferase reporter, read-out: AHR Antagonism Mouse IC50
[4] = mouse Hepa 1c1c7 cells, 200 μM kynurenic acid, 20 hours, read-out: AHR Antagonism Mouse IC50
[5] = read-out: AHR Antagonism Mouse IC50, Hepa 1c1c7 cells, 200 μM kynurenic acid, 20 hours, firefly luciferase reporter

| SMILES | IC50 ([1]; firefly luciferase reporter) [M] | IC50 [2, 3] [nM] | IC50 [1] [M] | IC50 [2, 4] [nM] | IC50 [2, 5] [nM] |
| --- | --- | --- | --- | --- | --- |
| COc1ccc(-c2nc3c4cccc(OC5CCC5)c4nc(N[C@@H]4CCCCNC4=O)n3n2)cc1 [Example 998, (3R)-3-{[7-(cyclobutyloxy)-2-(4-methoxyphenyl)[1,2,4]triazolo[1,5-c]quinazolin-5-yl]amino}azepan-2-one] | 4.16e-07 | 279 |  |  |  |
| CCn1cc(-c2nc3c4cccc(Cl)c4nc(N[C@@H]4CNCCNC4=O)n3n2)cn1 [Example 957, (6R)-6-{[7-chloro-2-(1-ethyl-1H-pyrazol-4-yl)[1,2,4]triazolo[1,5-c]quinazolin-5-yl]amino}-1,4-diazepan-5-one] | 1.22e-08 | 16.8 |  |  |  |
| Cc1nc(-c2nc3c4ccccc4nc(N[C@@H]4CCCCNC4=O)n3n2)co1 [Example 70, (3R)-3-{[2-(2-methyl-1,3-oxazol-4-yl)[1,2,4]triazolo[1,5-c]quinazolin-5-yl]amino}azepan-2-one] |  |  | 2.44e-08 | 51.7 |  |
| COc1ccc(-c2nc3c4ccccc4nc(N[C@H](C)C(=O)NCCN4CCCCC4)n3n2)cc1 [Example 897, N^2-[2-(4-methoxyphenyl)[1,2,4]triazolo[1,5-c]quinazolin-5-yl]-N-[2-(piperidin-1-yl)ethyl]-D-alaninamide] | 4.02e-08 | 28.5 |  |  |  |
| CC[C@@H](Nc1nc2ccccc2c2nc(-c3ccccc3)nn12)C(N)=O [Example 4, (2R)-2-[(2-phenyl[1,2,4]triazolo[1,5-c]quinazolin-5-yl)amino]butanamide] |  |  | 1.68e-09 | 0.91 |  |
| C[C@@H](Nc1nc2c(Br)cccc2c2nc(-c3cnn(C)c3)nn12)C(=O)N1CC2(COC2)C1 [Example 917, (2R)-2-{[7-bromo-2-(1-methyl-1H-pyrazol-4-yl)[1,2,4]triazolo[1,5-c]quinazolin-5-yl]amino}-1-(2-oxa-6-azaspiro[3.3]heptan-6-yl)propan-1-one] | 3.76e-08 |  |  |  | 65.6 |
| Cc1cccc(-c2nc3c4ccccc4nc(N[C@@H]4CCCCNC4=O)n3n2)c1 [Example 53, (3R)-3-{[2-(3-methylphenyl)[1,2,4]triazolo[1,5-c]quinazolin-5-yl]amino}azepan-2-one] |  |  | 1.16e-08 | 5.28 |  |
| Cc1ccccc1-c1nc2c3ccccc3nc(NC3CCNC3=O)n2n1 (stereo not drawn) [Example 43, 3-{[2-(2-methylphenyl)[1,2,4]triazolo[1,5-c]quinazolin-5-yl]amino}pyrrolidin-2-one] |  |  | 8.65e-09 | 19.8 |  |
| COc1ccc(-c2nc3c4cccc(C5(C(F)(F)F)CC5)c4nc(N[C@@H]4CNCCNC4=O)n3n2)cc1 [Example 431, (6R)-6-({2-(4-methoxyphenyl)-7-[1-(trifluoromethyl)cyclopropyl][1,2,4]triazolo[1,5-c]quinazolin-5-yl}amino)-1,4-diazepan-5-one] |  |  | 1.43e-08 | 60.6 |  |
| O=C1NCCC[C@H]1Nc1nc2ccccc2c2nc(-c3ccc(Cl)cc3OC(F)(F)F)nn12 [Example 519, (3R)-3-({2-[4-chloro-2-(trifluoromethoxy)phenyl][1,2,4]triazolo[1,5-c]quinazolin-5-yl}amino)piperidin-2-one] |  |  | 3.65e-08 | 22.2 |  |
| O=C1NCC[C@H]1Nc1nc2ccccc2c2nc(-c3ccc(Cl)cc3OC(F)(F)F)nn12 [Example 520, (3R)-3-({2-[4-chloro-2-(trifluoromethoxy)phenyl][1,2,4]triazolo[1,5-c]quinazolin-5-yl}amino)pyrrolidin-2-one] |  |  | 3.05e-08 | 9.59 |  |
| COc1ccc(-c2nc3c4cccc(C5CC5)c4nc(N[C@H]4CNCCNC4=O)n3n2)cc1 [Example 959, (6S)-6-{[7-cyclopropyl-2-(4-methoxyphenyl)[1,2,4]triazolo[1,5-c]quinazolin-5-yl]amino}-1,4-diazepan-5-one] | 5.36e-08 | 368 |  |  |  |
| CCCNC(=O)[C@@H](C)Nc1nc2c(Br)cccc2c2nc(-c3ccc(Cl)cc3OC(F)F)nn12 [Example 692, N^2-{7-bromo-2-[4-chloro-2-(difluoromethoxy)phenyl][1,2,4]triazolo[1,5-c]quinazolin-5-yl}-N-propyl-D-alaninamide] |  |  | 6.79e-10 | 0.308 |  |
| N#Cc1cccc2c1nc(N[C@@H]1CNCCNC1=O)n1nc(-c3cnn(C(F)F)c3)nc21 [Example 934, 2-[1-(difluoromethyl)-1H-pyrazol-4-yl]-5-{[(6R)-5-oxo-1,4-diazepan-6-yl]amino}[1,2,4]triazolo[1,5-c]quinazoline-7-carbonitrile] | 2.39e-07 |  |  |  | 116 |
| O=C1NCCCC[C@H]1Nc1nc2ccccc2c2nc(-c3cn[nH]c3)nn12 [Example 69, (3R)-3-{[2-(1H-pyrazol-4-yl)[1,2,4]triazolo[1,5-c]quinazolin-5-yl]amino}azepan-2-one] |  |  | 3.59e-07 | 460 |  |
| COc1cccc2c1nc(N[C@@H]1CCCCNC1=O)n1nc(-c3cnn(C4CC4)c3)nc21 [Example 757, (3R)-3-{[2-(1-cyclopropyl-1H-pyrazol-4-yl)-7-methoxy[1,2,4]triazolo[1,5-c]quinazolin-5-yl]amino}azepan-2-one] |  |  | 5.4e-08 | 109 |  |
| C[C@H]1CN(C(=O)[C@@H](C)Nc2nc3c(Br)cccc3c3nc(-c4cnn(C)c4)nn23)CCO1 [Example 908, (2R)-2-{[7-bromo-2-(1-methyl-1H-pyrazol-4-yl)[1,2,4]triazolo[1,5-c]quinazolin-5-yl]amino}-1-[(2S)-2-methylmorpholin-4-yl]propan-1-one] | 2.87e-08 | 18.8 |  |  |  |
| COc1ccc(-c2nc3c4ccccc4nc(N[C@H](C)C(=O)NCCN4CCN(C(=O)OC(C)(C)C)CC4)n3n2)cc1 [Example 884, tert-butyl 4-[2-({N-[2-(4-methoxyphenyl)[1,2,4]triazolo[1,5-c]quinazolin-5-yl]-D-alanyl}amino)ethyl]piperazine-1-carboxylate] | 6.66e-09 | 8.31 |  |  |  |
| CC[C@H](Nc1nc2ccccc2c2nc(-c3cnccn3)nn12)C(N)=O [Example 688, (2S)-2-{[2-(pyrazin-2-yl)[1,2,4]triazolo[1,5-c]quinazolin-5-yl]amino}butanamide] |  |  | > 2e-05 | > 20000 |  |
| CC[C@@H](Nc1nc2c(Br)cccc2c2nc(-c3ccc(OC)cc3)nn12)C(N)=O [Example 557, (2R)-2-{[7-bromo-2-(4-methoxyphenyl)[1,2,4]triazolo[1,5-c]quinazolin-5-yl]amino}butanamide] |  |  | 2.39e-10 | 0.865 |  |
| O=C1NCCCC[C@H]1Nc1nc2ccccc2c2nc(-c3ccccc3C(F)(F)F)nn12 [Example 52, (3R)-3-({2-[2-(trifluoromethyl)phenyl][1,2,4]triazolo[1,5-c]quinazolin-5-yl}amino)azepan-2-one] |  |  | 1.3e-08 | 3.22 |  |

Source: patent publication US20230113037A1 (Bayer Aktiengesellschaft, priority 2019, published 2023)
